Results: publication PMC10227015, “From a drug repositioning to a structure-based drug design approach to tackle acute lymphoblastic leukemia” (Nature Communications, 2023)

Columns and labels:
Experiment in all cases: KINOMEscan competition binding
Conditions in all cases: OR0642 1 µM; read-out: %Control
IKK-beta = target: T1, IKK-beta (Homo sapiens, UniProt O14920)
T1 construct: purchased Eurofins DiscoverX (KINOMEscan scanEDGE 97)
Experimental: (§1) Kinome profiling was provided by Eurofins DiscoverX Corporation. Determination of the % control activity for 97 kinases was obtained through an active site-directed competition binding assay that quantitatively measure interactions between compound and kinases. OR0642 was used at 1 μM.
(§2) Supplementary Table 3. KINOMEscan™ Profiling of OR0642. Competition binding assay to
(§3) quantitatively measure interactions between OR0642 (1 µM) and 97 human kinases and disease
(§4) relevant mutant variants.

KIT(V559D,T670I) = target: T2, KIT(V559D,T670I) (Homo sapiens, UniProt P10721, T670I/V559D)
T2 construct: purchased Eurofins DiscoverX (KINOMEscan scanEDGE 97)
Experimental: as §1, §2, §3, §4

PIK3CG = target: T3, PIK3CG (Homo sapiens, UniProt P48736)
T3 construct: purchased Eurofins DiscoverX (KINOMEscan scanEDGE 97)
Experimental: as §1, §2, §3, §4

PDPK1 = target: T4, PDPK1 (Homo sapiens, UniProt O15530)
T4 construct: purchased Eurofins DiscoverX (KINOMEscan scanEDGE 97)
Experimental: as §1, §2, §3, §4

MAP3K4 = target: T5, MAP3K4 (Homo sapiens, UniProt Q9Y6R4)
T5 construct: purchased Eurofins DiscoverX (KINOMEscan scanEDGE 97)
Experimental: as §1, §2, §3, §4

T4 sequence (O15530 whole entry): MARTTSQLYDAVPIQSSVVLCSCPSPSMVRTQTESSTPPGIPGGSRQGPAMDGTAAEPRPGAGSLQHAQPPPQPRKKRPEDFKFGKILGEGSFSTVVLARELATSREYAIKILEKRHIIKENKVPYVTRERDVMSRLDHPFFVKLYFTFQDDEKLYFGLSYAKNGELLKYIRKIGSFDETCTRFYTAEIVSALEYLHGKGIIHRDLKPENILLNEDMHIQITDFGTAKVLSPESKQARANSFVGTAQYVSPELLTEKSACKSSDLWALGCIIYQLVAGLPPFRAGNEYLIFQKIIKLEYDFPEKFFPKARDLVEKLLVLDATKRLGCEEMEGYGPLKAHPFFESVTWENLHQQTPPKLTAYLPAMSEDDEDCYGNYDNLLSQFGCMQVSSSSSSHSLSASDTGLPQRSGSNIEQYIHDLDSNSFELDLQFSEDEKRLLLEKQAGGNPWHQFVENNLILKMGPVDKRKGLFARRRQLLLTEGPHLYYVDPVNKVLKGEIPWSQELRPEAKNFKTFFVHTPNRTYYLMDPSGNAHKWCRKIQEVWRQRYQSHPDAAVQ
T2 sequence (P10721 26-976 V559D/T670I): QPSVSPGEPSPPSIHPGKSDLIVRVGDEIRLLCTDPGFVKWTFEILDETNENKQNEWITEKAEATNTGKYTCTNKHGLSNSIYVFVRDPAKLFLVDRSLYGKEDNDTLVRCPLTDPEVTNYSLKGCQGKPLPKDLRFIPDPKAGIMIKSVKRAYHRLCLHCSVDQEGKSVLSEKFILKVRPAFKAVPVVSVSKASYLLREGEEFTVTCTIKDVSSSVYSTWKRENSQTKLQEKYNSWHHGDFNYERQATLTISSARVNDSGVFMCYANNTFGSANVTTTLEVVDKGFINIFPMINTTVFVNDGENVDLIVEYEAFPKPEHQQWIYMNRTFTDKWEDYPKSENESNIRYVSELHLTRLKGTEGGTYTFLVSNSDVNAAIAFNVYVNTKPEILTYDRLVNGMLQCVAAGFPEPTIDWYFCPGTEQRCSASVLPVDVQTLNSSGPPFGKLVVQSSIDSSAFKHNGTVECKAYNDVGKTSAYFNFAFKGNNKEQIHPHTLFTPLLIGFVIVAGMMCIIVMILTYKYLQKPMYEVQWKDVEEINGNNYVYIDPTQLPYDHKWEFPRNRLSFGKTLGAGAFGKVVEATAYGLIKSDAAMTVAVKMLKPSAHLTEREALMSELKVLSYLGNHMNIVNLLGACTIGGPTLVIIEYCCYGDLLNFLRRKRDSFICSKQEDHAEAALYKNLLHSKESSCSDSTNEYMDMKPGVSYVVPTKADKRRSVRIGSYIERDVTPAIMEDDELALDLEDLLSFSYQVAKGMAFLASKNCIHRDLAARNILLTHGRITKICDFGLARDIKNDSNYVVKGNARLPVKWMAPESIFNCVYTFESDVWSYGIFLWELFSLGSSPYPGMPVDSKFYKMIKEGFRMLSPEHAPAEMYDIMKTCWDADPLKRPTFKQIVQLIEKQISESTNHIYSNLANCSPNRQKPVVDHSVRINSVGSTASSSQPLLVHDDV
T5 sequence (Q9Y6R4 whole entry): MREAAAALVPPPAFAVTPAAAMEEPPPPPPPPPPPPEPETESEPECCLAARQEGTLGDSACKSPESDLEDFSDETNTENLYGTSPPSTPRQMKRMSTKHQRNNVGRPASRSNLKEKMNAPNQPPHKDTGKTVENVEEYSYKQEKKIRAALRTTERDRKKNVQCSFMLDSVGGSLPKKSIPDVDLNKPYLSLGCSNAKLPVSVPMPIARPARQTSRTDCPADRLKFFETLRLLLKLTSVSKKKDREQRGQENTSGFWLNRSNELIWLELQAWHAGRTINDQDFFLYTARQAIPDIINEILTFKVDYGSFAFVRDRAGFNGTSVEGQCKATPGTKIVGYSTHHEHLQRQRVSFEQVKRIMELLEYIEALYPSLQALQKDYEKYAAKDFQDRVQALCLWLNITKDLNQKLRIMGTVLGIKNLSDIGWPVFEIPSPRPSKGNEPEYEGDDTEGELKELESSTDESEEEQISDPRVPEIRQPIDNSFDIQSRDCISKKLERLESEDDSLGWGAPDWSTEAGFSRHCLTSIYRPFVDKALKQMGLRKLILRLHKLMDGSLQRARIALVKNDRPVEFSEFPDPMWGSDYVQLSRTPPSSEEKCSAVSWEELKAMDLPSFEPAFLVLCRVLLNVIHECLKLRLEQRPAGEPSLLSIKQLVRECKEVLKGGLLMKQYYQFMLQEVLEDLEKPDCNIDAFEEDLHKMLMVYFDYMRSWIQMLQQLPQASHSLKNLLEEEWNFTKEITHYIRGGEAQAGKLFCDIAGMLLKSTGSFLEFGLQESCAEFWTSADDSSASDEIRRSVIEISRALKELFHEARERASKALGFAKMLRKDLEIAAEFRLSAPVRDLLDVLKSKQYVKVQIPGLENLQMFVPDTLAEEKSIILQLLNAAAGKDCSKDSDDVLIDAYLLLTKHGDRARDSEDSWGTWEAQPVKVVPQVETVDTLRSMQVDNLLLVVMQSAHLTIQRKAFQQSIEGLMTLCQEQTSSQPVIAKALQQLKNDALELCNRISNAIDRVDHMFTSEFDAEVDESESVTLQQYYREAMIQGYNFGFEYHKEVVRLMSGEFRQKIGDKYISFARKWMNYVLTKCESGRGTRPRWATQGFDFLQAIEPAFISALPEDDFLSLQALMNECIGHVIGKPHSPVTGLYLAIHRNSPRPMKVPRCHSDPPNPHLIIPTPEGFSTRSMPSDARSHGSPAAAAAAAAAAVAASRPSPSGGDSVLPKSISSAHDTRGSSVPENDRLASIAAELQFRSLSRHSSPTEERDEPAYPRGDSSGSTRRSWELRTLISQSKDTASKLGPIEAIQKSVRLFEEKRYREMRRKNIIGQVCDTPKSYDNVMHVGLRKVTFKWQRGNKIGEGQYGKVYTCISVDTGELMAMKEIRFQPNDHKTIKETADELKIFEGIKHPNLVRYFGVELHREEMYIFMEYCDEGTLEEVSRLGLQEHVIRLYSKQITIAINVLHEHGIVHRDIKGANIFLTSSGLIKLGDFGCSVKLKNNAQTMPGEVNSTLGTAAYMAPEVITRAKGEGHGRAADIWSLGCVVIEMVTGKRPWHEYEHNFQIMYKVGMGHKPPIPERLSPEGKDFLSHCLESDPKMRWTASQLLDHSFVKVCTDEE
T3 sequence (P48736 whole entry): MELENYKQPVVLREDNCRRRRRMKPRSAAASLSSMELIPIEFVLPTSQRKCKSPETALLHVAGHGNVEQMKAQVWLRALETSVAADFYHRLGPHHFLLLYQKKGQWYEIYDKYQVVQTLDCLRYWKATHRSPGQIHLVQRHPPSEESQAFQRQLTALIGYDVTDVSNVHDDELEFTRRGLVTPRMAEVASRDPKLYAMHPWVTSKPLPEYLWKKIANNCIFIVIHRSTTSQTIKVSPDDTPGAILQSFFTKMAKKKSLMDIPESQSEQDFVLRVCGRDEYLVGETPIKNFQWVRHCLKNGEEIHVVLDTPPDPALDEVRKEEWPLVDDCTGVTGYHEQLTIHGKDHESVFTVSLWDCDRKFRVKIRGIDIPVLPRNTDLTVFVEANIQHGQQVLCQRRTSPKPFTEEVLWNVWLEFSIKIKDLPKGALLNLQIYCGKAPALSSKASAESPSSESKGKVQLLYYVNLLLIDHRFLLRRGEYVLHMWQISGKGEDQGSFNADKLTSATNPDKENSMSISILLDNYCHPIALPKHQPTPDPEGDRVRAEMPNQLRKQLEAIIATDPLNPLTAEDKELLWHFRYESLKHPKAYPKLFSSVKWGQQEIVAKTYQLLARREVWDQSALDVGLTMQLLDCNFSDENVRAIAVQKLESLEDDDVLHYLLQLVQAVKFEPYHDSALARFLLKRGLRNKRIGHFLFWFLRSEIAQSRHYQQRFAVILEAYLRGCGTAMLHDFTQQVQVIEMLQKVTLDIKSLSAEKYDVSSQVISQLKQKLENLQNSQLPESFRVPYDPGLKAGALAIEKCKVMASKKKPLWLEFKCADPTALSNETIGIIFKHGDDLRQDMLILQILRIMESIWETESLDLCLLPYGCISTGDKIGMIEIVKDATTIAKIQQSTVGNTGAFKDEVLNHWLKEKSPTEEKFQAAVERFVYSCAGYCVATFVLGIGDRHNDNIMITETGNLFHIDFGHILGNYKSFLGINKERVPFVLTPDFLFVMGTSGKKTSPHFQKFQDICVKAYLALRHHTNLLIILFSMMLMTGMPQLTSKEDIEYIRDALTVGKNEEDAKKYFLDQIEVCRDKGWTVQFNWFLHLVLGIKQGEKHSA
T1 sequence (O14920 whole entry): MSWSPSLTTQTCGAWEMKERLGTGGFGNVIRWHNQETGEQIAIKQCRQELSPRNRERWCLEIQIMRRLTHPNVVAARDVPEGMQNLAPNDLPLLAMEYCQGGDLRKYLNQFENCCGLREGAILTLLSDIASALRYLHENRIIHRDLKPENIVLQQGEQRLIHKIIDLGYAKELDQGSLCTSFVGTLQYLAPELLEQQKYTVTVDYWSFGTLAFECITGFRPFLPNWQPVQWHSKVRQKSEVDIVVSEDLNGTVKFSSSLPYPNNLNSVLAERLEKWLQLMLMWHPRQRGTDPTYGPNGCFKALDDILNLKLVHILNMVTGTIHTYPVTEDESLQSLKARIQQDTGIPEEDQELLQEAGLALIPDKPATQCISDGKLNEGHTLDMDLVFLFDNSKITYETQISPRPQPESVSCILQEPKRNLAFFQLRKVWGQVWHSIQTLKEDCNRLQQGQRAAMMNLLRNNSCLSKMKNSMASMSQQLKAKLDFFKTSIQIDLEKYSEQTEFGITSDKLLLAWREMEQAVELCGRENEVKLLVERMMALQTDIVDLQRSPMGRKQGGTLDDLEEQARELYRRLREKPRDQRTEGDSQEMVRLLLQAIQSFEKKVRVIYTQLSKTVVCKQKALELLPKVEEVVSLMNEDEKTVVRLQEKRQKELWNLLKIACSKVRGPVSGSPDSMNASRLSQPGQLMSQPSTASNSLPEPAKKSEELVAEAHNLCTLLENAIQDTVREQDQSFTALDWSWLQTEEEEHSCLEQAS

Compound `CCCN(c1nc(-c2nc(N)cc(N)n2)cs1)c1cc(-c2ccc(S(=O)(=O)N3CCN(C)CC3)cc2C(F)(F)F)ccc1C` [OR0642] has a remaining binding at 1 µM (IKK-beta) of 90%, a remaining binding at 1 µM (KIT(V559D,T670I)) of 100% and a remaining binding at 1 µM (PIK3CG) of 100%. It also gave a remaining binding at 1 µM (PDPK1) of 98% and a remaining binding at 1 µM (MAP3K4) of 97%.
